Assay: gradient 5% acetonitrile 3 min, to 50% in 2 min, to 85% in 15 min, held 3 min, 100 µL/min
Settings: column: Zorbax Extend-C18 2.1 x 50 mm; eluents: water / acetonitrile, 0.1% formic acid
How it was run: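 Retention time was recorded from adduct peaks, which were picked computationally and each inspected manually. Pure standards ran in mixtures of ~100 molecules on HPLC coupled to a quadrupole time-of-flight mass spectrometer, in positive and negative ionization mode, through a Zorbax Extend-C18 column (2.1 × 50 mm, 1.8 μm) at 100 μL/min. Eluents were water and acetonitrile, each with 0.1% formic acid.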

| Compound | RP-LC retention time [s] |
| --- | --- |
| COc1ccc(Cl)cc1S(=O)(=O)N(C)CC1(C)CCOCC1 | 829 |
| O=C(c1ccccn1)N1CC(c2nc(-c3ccccc3)no2)C2(CCOCC2)C1 (centres undefined) | 743 |
| Cc1ccc(-c2ncc3c(=O)n(Cc4ccc(F)cc4)c(=O)n(C)c3n2)cc1 | 1260 |
| CC(C)c1ccc(NC(=O)C2CCN(C(=O)c3ncn4c3COC(c3ccc(F)cc3)C4)CC2)cc1 (centres undefined) | 949 |
| CCn1cc(-c2nc(CC(=O)Nc3ccccc3OC)cs2)c2cccnc21 | 984 |
| CCCc1noc(-c2ccc3nnc(CC(=O)Nc4cc(C)cc(C)c4)n3c2)n1 | 947 |
| CS(=O)(=O)N(C1CCOCC1)C1CCN(S(=O)(=O)Cc2ccccc2)CC1 | 779 |
| CCn1cc(-c2nc(CC(=O)Nc3cc(C)ccc3F)cs2)c2cccnc21 | 1040 |
| COC(=O)c1ccc2c(=O)n(-c3cccc(C)c3)c(N3CCN(c4ccccn4)CC3)nc2c1 | 726 |
| C=CCN1C(=O)COc2ccc(-c3nc(NC(=O)c4ccc(OC)c(OC)c4)sc3C)cc21 | 985 |
| O=S(=O)(c1ccc(C(F)(F)F)cc1)N1CC(c2nc(-c3ccncc3)no2)C1 | 888 |
| CCc1nc2cc(-c3noc(Cc4ccc(F)cc4)n3)ccc2o1 | 1070 |
| CN1CCC(N2CCN(S(=O)(=O)c3cc(-c4nc(C(C)(C)C)cs4)cs3)CC2)CC1 | 660 |
| O=S(=O)(Cc1noc(-c2ccc(F)cc2F)n1)c1ccc(Cl)cc1 | 1160 |
| CC(C)c1nncn1C1CCN(C(=O)c2cc(-c3cccs3)[nH]n2)C1 (centres undefined) | 617 |
| Cc1ccc2c(c1)Oc1ccccc1N=C2 | 993 |
| Cc1cc(-c2nnc(-c3ccc(F)cc3)o2)c(C)n1CC(=O)NC1CCCCC1 | 979 |
| CC(=O)Nc1cccc(-n2cc3c(c2-c2ccccc2Cl)c(=O)n(C)c(=O)n3C)c1 | 768 |
| O=C(c1ccoc1)N1CCC(F)(C(=O)NCC2CC2)CC1 | 618 |

| Compound | RP-LC retention time [s] |
| --- | --- |
| Cc1cccc(OCc2nc(CCN(C)C(=O)Nc3ccccc3C)no2)c1 | 919 |
| C=CCn1c(=O)c2c(nc3n2CCCCN3c2ccc(OCC)cc2)n(C)c1=O | 917 |
| O=C(Nc1ccc(CC(=O)N2CCC(O)CC2)cc1)C1CCC1 | 588 |
| CCN1C(=O)c2cccnc2Sc2cc(C(=O)N3CCCC3)ccc21 | 684 |
| Cc1csc(-c2cc(S(=O)(=O)Nc3ccc(F)cc3Cl)cn2CC(=O)N2CCCC2)n1 | 944 |
| CCC(C(=O)NCCc1c[nH]c2ccccc12)n1nc(C)c2nn(-c3ccccc3)c(C)c2c1=O (centres undefined) | 932 |
| O=C(Cn1cnc2nc(N3CCC(C(=O)NC4CC4)CC3)sc2c1=O)Nc1ccc(F)c(F)c1 | 705 |
| O=C1Nc2ccccc2/C1=C\c1cnc[nH]1 | 617 |
| CN(C)c1ccc2c(c1)OC(N)=C(C#N)C2c1cccc(C(F)(F)F)c1 (centres undefined) | 1020 |
| Cc1cc(OCC(=O)Nc2ccccc2C(F)(F)F)nc(N2CCCC(C)C2)n1 (centres undefined) | 734 |
| Cc1cc(C(=O)N(Cc2ccco2)c2nc3ccccc3s2)on1 | 1100 |
| CCn1cc(C(=O)Nc2ccc(C)cc2)c(S(=O)(=O)N2CCSCC2)n1 | 887 |
| CCOc1ccc(-c2cn3ccn(-c4ccc(Cl)cc4)c(=O)c3n2)cc1 | 962 |
| O=C(CCCc1nc(-c2ccc(Cl)cc2)no1)Nc1nc(-c2ccccc2)cs1 | 1170 |
| COc1ccc(CCN2CN=C(Nc3nc(C)c4cc(C)ccc4n3)NC2)cc1OC | 722 |
| CCCCN(C)C(=O)Cn1ccn2nc(-c3ccccc3)c(CO)c2c1=O | 776 |
| O=C(NCC1CCCO1)N1CCCn2nc(-c3cccs3)cc2C1 (centres undefined) | 663 |
| CC(C)CC(NC(=O)[C@H]1CCCN1C(=O)OCc1ccccc1)C(=O)NCC(=O)NO (some centres undefined) | 648 |
| Cc1nc2ccn(Cc3ccco3)c(=O)c2cc1C(=O)NCCc1ccco1 | 720 |

Now from value to compound:

| RP-LC retention time [s] | Compound |
| --- | --- |
| 1110 | Cc1cc2nn(CC(=O)N(C)C3CCCCC3)c(=O)n2c(Nc2ccccc2C)n1 |
| 632 | CC(=O)N1CCN(c2nc3c(s2)CC(C(=O)Nc2cccc4c2CCCC4)CC3)CC1 (centres undefined) |
| 859 | Cn1cc(-c2cc3n(n2)CCC(=O)N3CCCC(=O)N2CCN(c3ccccc3)CC2)c2ccccc21 |
| 602 | CC(C)N1CCN(C(=O)c2cn3ccnc(-c4ccccc4)c3n2)CC1 |
| 698 | Cn1nc(C(=O)N2CC(N(C3CCOCC3)S(C)(=O)=O)C2)c2ccccc21 |
| 704 | O=C1CCCc2c1cc(C(=O)N1CCCCC1)c(=O)n2-c1ccc(F)cc1 |
| 778 | Cc1ccc2nc(-c3ccccc3F)cc(C(N)=O)c2c1 |
| 520 | Cc1nnc(NC(=O)CNC(=O)c2ccc(=O)[nH]c2)s1 |
| 993 | COc1ccc(NC(=O)Cn2cccc2-c2nnc(-c3ccccc3)o2)c(OC)c1 |
| 653 | COCCNC(=O)C1(C)CCC(=O)N1CCc1c[nH]c2ccccc12 (centres undefined) |
| 1210 | COc1ccc(-c2nc(-c3cccc(-c4ccnn4C)c3)no2)c(C)c1 |
| 922 | O=C(Cc1ccccc1F)N1CCC(c2nc(-c3ccccc3)no2)C1 (centres undefined) |
| 695 | Cc1ccn2cc(-c3ccc(NC(=O)c4ccc(Cl)cc4Cl)cc3)nc2n1 |
| 873 | O=C(CSc1ccc(N2CCN(c3ccc(F)cc3)CC2)nn1)NCc1ccco1 |
| 1240 | CCCN1CCCCc2cc(C(=O)N(CC)C(C)C)sc21 |
| 814 | CC1(C(=O)NCc2ccc(Cl)cc2)CN(S(C)(=O)=O)CC(=O)N1Cc1ccc(F)cc1 (centres undefined) |
| 916 | COc1ccc(N2C=C(C#N)S(=O)(=O)c3ccc(Cl)cc32)cc1OC |
| 980 | CCn1c(=O)sc2cc(S(=O)(=O)N3CCC(C(=O)Nc4ccc(Cl)cc4C)CC3)ccc21 |
| 963 | CCOc1ccc(CC(=O)Nc2nc(-c3cccs3)cs2)cc1 |
| 842 | COc1ccccc1OC(C)C(=O)Nc1ccnn1Cc1cccs1 (centres undefined) |
| 729 | CCOc1ccccc1NC(=O)CNC(=O)c1c[nH]c2ccccc12 |
| 763 | COc1ccc(CCNC(=O)C2CN(S(C)(=O)=O)CC23CCCCC3)cc1OC (centres undefined) |
| 1240 | CCOC(=O)C1=C(C)NC(C)=C(C(=O)OCC)C1c1c(F)c(F)c(F)c(F)c1F |
| 622 | CC(=O)N1CCc2cc(-c3ccc(C(=O)NCCN4CCCCC4C)cc3)ccc21 (centres undefined) |
| 829 | COc1ccccc1-c1noc(C2CCCN2C(=O)c2n[nH]c3ccccc23)n1 (centres undefined) |
| 719 | CCC1CN2C=Nc3oc(C)c(C(=O)Nc4cccc(C(F)(F)F)c4)c3C2=N1 (centres undefined) |

| RP-LC retention time [s] | Compound |
| --- | --- |
| 1100 | Cc1cc2nn(CC(=O)Nc3cc(F)ccc3F)c(=O)n2c(Nc2ccc(F)c(C)c2)n1 |
| 910 | COc1cc(C(=O)N2CCCC2c2nc(-c3ccccc3)no2)cc(OC)c1OC (centres undefined) |
| 1170 | COc1ccc(-c2ncc3c(n2)CCN(C(=O)Nc2cccc(Cl)c2C)C3)cc1 |
| 796 | O=C(NCCc1c[nH]c2ccc(F)cc12)c1cncc(Br)c1 |
| 706 | O=C1CCCc2cc(S(=O)(=O)N3CCC(C(=O)NCc4ccc5c(c4)OCO5)CC3)ccc2N1 |
| 905 | Fc1ccc(Cc2nc3nccc(-c4ccsc4)n3n2)cc1 |
| 927 | O=C(Nc1cc(-c2ccsc2)no1)c1ccc(Br)o1 |
| 801 | Cc1ccccc1N1CCN(Cc2nc(-c3ccc(N4CCSCC4)nc3)no2)CC1 |
| 771 | CNC(=O)c1cc2cc(Br)ccc2[nH]1 |
| 907 | CCc1ccccc1NC(=O)N(C)CCc1noc(COc2ccccc2F)n1 |
| 659 | CCOc1ccc(S(=O)(=O)N2CCCC(C(=O)NCc3ccncc3)C2)cc1C (centres undefined) |
| 755 | COC(=O)c1ncn2c1C(=O)N(Cc1ccc(Cl)cc1)C(C)(C(=O)NCc1ccccc1)C2 (centres undefined) |
| 630 | CC(C)Oc1ccccc1CN1C[C@@H]2C(=O)N(CCCN3CCCC3=O)C(=O)[C@@H]2C1 |
| 643 | COc1ccc(NC(=O)N2C[C@@H](F)C[C@H]2C(=O)N2CCCCC2)cc1OC |
| 687 | Fc1ccc(-c2noc(-c3ccc(NCCN4CCOCC4)nc3)n2)cc1 |
| 785 | CCOC(=O)C1CCCN(C(=O)Cn2ccc3ccc(-c4nnc(C)o4)cc32)C1 (centres undefined) |
| 566 | Cc1nnc2n1CCC(N(C)C(=O)c1ccsc1)CC2 (centres undefined) |
| 783 | Cc1nc(-c2cccc(N3CC(C(=O)N4CCCc5ccccc54)CC3=O)c2)no1 (centres undefined) |
| 800 | CC(C)n1nc(CNC(=O)c2ccsc2)c2ccccc21 |
| 950 | COc1ccc(Br)c(C(=O)Nc2ccc3c(c2)N(C(=O)C2CCCC2)CC3)c1 |
| 776 | CC(=O)OCC(=O)[C@@]1(O)CCC2C3CCC4=CC(=O)CC[C@]4(C)C3=CC[C@@]21C (some centres undefined) |
| 972 | Cc1ccc(NC(=O)Cn2c(=O)cc(-c3nc(C)no3)c3ccccc32)c(C)c1 |
| 539 | O=C(CCn1cnc2ccccc2c1=O)N1CCN(CCn2cccn2)CC1 |
| 786 | Cc1ccc(Nc2c(-c3ccccc3)nc3ncccn23)c(C)c1 |
| 916 | O=C(Nc1ccc(F)c(F)c1)c1c(O)c2cccnc2n(-c2ccccc2)c1=O |
